Assay results: publication PMC4252796 (Molecular and biochemical parasitology, 2014)

What follows are compounds tested against T1, LmjPEM1 (Leishmania major, UniProt Q4Q5U4) (assay: radiometric PEMT assay, 3H-SAM incorporation into total lipids, yeast extract). Conditions: endogenous yeast PE as substrate; 0.1 M TrisHCl pH 7.5, 30°C, 50 min.
T1 sequence (Q4Q5U4 1-582): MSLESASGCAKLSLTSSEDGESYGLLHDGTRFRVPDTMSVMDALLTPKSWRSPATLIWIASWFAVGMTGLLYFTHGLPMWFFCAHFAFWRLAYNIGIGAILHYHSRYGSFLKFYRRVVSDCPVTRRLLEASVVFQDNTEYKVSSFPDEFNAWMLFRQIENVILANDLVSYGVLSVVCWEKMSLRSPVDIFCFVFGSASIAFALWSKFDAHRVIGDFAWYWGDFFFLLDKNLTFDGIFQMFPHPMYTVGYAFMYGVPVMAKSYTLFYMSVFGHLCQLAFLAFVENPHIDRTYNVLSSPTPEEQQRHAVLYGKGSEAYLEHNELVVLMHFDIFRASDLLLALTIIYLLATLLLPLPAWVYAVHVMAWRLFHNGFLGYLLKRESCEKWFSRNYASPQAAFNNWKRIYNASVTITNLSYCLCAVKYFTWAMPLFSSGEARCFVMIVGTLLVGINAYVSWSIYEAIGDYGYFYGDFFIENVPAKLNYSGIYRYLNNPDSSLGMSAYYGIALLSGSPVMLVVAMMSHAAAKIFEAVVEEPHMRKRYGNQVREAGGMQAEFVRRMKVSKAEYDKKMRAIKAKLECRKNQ
Format: biochemical
`CCCCCCCCCCCCCCCCCC[N+](C)(C)C` [compound 1, octadecyltrimethylammonium bromide] was tested, and the “% activity at 10 or 100 μM” value was “followed by miltefosine, octadecyltrimethylammonium bromide, and octadecylphosphocholine”.
With `C[N+](C)(C)CCO` [compound 3, choline] the “% activity at 10 or 100 μM” value was “while choline had a very small effect”.
For `CCCCCCCCCCCCCCCCOP(=O)([O-])OCC[N+](C)(C)C` [compound 5, miltefosine], the “% activity at 10 or 100 μM” value was “followed by miltefosine, octadecyltrimethylammonium bromide, and octadecylphosphocholine”.
With `CCCCCCCCCCCCCCCC[N+](C)(C)C` [compound 2, hexadecyltrimethylammonium bromide] the “% activity at 10 or 100 μM” value was “LmjPEM1 activity was best inhibited by hexadecyltrimethylammonium bromide”.
In the case of `CCCCCCCCCCCCCCCCCCOP(=O)([O-])OCC[N+](C)(C)C` [compound 6, octadecylphosphocholine], the “% activity at 10 or 100 μM” value is reported as “followed by miltefosine, octadecyltrimethylammonium bromide, and octadecylphosphocholine”.
